Source: the supplement of paper PMC8882468

How the values were obtained:
Assay in all cases: CTG-3D luminescence at 96 h relative to day-0 seeding control (ratio to day 0); higher = more growth / less cytotoxicity; PDxO 3D drug screen (set 2), 96 h, CTG-3D normalised to day-0 seeding control.
HCI-025 = system: HCI-025 (organoid from a breast cancer xenograft)
HCI-017.E2 = system: HCI-017.E2 (organoid from an ER-positive breast cancer xenograft)
HCI-008 = system: HCI-008 (organoid from a HER2-enriched breast cancer xenograft)
HCI-011.E2 = system: HCI-011.E2 (organoid from an ER-positive breast cancer xenograft)
HCI-016 = system: HCI-016 (organoid from a triple-negative breast cancer xenograft)

C[C@@H](Nc1cc(F)cc(F)c1)c1cc(C(=O)N(C)C)cc2c(=O)cc(N3CCOCC3)oc12 [AZD-8186]
CTG-3D luminescence at 96 h
Settings | 12.5 pM | 0.00025 µM | 0.005 µM | 0.1 µM | 1 µM | 10 µM | 100 µM | 625 fM
HCI-008, days in culture: 325 | 1.16 | 2.3 | 1.7 | 3.47 | 3.65 | 1.03 | 0.315 | 1.35
HCI-008, days in culture: 340 | 1.72 | 2.42 | 1.8 | 1.21 | 1.62 | – | 0.345 | 1.48
HCI-008, days in culture: 354 | 1.26 | 1.28 | 1.82 | 1.24 | 1.26 | 0.634 | 0.353 | 1.32
HCI-008, days in culture: 382 | 1.77 | 1.86 | 1.54 | 1.44 | 1.16 | 0.995 | 0.193 | 1.86
HCI-011.E2, days in culture: 74 | 2.16 | 1.88 | 1.79 | 2.21 | 1.49 | 1.12 | 0.136 | 2.4
HCI-016, days in culture: 305 | 3.52 | 4.53 | 2.53 | 4.16 | 1.53 | 1.97 | 1.51 | 4.97
HCI-016, days in culture: 327 | 1.3 | 1.35 | 1.53 | 2.67 | 0.902 | 1.31 | 0.672 | 1.61
HCI-016, days in culture: 341 | 2.01 | 1.59 | 2.07 | 1.7 | 1.81 | 2.04 | 0.88 | 2.55
HCI-016, days in culture: 397 | 2.34 | 2.9 | 1.49 | 1.76 | 2.14 | 1.87 | 0.71 | 2.46
HCI-017.E2, days in culture: 85 | 1.85 | 1.86 | 1.62 | 2.05 | 1.45 | 1.14 | 0.197 | 2.07
HCI-025, days in culture: 175 | 1.63 | 2.47 | 1.8 | 1.98 | 2.4 | 3.48 | 1.34 | 1.51
HCI-025, days in culture: 189 | 2.22 | 1.46 | 1.89 | 1.5 | 1.81 | 1.88 | 0.528 | 3.16
HCI-025, days in culture: 212 | 1.07 | 3.57 | 2.79 | 1.25 | 0.857 | 1.27 | 1.2 | 1.56
HCI-025, days in culture: 224 | 1.99 | 2.38 | 1.66 | 2 | 2.68 | 1.8 | 1.09 | 2.03

CTG-3D luminescence at 96 h
Settings | 12.5 pM | 0.00025 µM | 0.005 µM | 0.1 µM | 1 µM | 10 µM | 100 µM | 625 fM
HCI-011.E2 | 1.45 | 1.9 | 1.54 | 1.81 | 1.47 | 1.01 | 0.293 | 2.13
HCI-017.E2 | 2.08 | 2.64 | 2.27 | 2.48 | 1.89 | 1.096 | 0.252 | 2.74

COc1cccc2c1C(=O)c1c(O)c3c(c(O)c1C2=O)C[C@@](O)(C(=O)CO)C[C@@H]3O[C@H]1C[C@H](N)[C@@H](O)[C@H](C)O1 [epirubicin]
CTG-3D luminescence at 96 h
Settings | 12.5 pM | 0.00025 µM | 0.005 µM | 0.1 µM | 1 µM | 10 µM | 100 µM | 625 fM
HCI-008, days in culture: 325 | 1.57 | 2.58 | 1.67 | 1.91 | 0.784 | 0.192 | -0.00523 | 1.81
HCI-008, days in culture: 340 | 1.38 | 1.84 | 1.52 | 1 | 0.612 | – | -0.0051 | 1.34
HCI-008, days in culture: 354 | 1.58 | 0.918 | 1.45 | 0.732 | 0.524 | 0.2 | 0.00146 | 1.46
HCI-008, days in culture: 382 | 1.97 | 1.33 | 1.3 | 1.6 | 0.222 | 0.161 | -0.000657 | 1.49
HCI-011.E2, days in culture: 74 | 2.38 | 2.27 | 2.26 | 2.8 | 0.677 | 0.0499 | -0.0143 | 2.23
HCI-016, days in culture: 305 | 2.91 | 3.05 | 3.17 | 1.79 | 0.0989 | 0.0325 | -0.0142 | 3.33
HCI-016, days in culture: 327 | 0.93 | 0.767 | 0.985 | 1.49 | 0.0556 | 0.0566 | -0.00792 | 1.16
HCI-016, days in culture: 341 | 2.05 | 1.72 | 2.11 | 0.986 | 0.0279 | 0.103 | -0.00358 | 2.49
HCI-016, days in culture: 397 | 2 | 1.81 | 1.7 | 0.704 | 0.0199 | 0.108 | -0.000737 | 3
HCI-017.E2, days in culture: 85 | 2.09 | 2.02 | 1.7 | 2.1 | 0.743 | 1.02 | 0.0107 | 1.92
HCI-025, days in culture: 175 | 1.67 | 1.16 | 0.961 | 0.846 | 0.14 | 0.0198 | -0.00458 | 1.31
HCI-025, days in culture: 189 | 2.65 | 2.38 | 1.58 | 1.14 | 0.108 | 0.00904 | -0.0017 | 2.54
HCI-025, days in culture: 212 | 1.54 | 2.81 | 3.5 | 1.27 | 0.125 | 0.0162 | -0.000834 | 1.07
HCI-025, days in culture: 224 | 1.88 | 2.11 | 1.45 | 0.576 | 0.0783 | 0.0108 | -0.00319 | 1.79

CTG-3D luminescence at 96 h
Settings | 12.5 pM | 0.00025 µM | 0.005 µM | 0.1 µM | 1 µM | 10 µM | 100 µM | 625 fM
HCI-011.E2 | 1.49 | 1.68 | 1.53 | 1.6 | 0.861 | 0.0857 | -0.000843 | 1.72
HCI-017.E2 | 2.04 | 2.99 | 2.22 | 2.13 | 0.562 | 1.07 | 0.00216 | 2.33
